Results on 31 substances are retold here after patent US11879140B2, “P21 mRNA targeting DNAzymes” (1E Therapeutics Ltd., priority 2020, dated 2024).

The test system of the first data set is human p21 mRNA. The data set is described as follows: In vitro cleavage assay of human p21 mRNA. To be noted: in vitro cleavage of p21 mRNA (SEQ ID NO: 1); RNA substrate 500 nM, 37° C. 60 min, agarose gel. The data set is classed as biochemical. The source says: Total RNA was isolates from senescent IMR-90 cells using Nucleospin® RNA kit (Macherey-Nagel™). cDNA was synthesized with gene-specific reverse primers using M-MLV Reverse Transcriptase (Promega), according to the manufacturer's protocol. To generate template for in vitro transcription (IVT) reaction, the cDNA was PCR amplified using KAPA Taq EXtra HotStart® ReadyMix™ PCR Kit (R&D). PCR product was run on 1.5% agarose TAE gel, the correct band size was cut and DNA was cleaned using Wizard® SV Gel and PCR Clean-Up System kit (Promega). IVT was performed using HiScribe™ T7 High Yield RNA Synthesis Kit (NEB). Samples were then treated with DNase I (New England Biolabs) and incubated for 15 minutes at 37° C. IVT product was run on 1.5% agarose TBE gel, the correct band size was cut and RNA was cleaned using QIAquick® Gel Extraction Kit (Qiagen). See primer sequences in Table 1, below.
RNA substrate was diluted with Molecular Biology Grade Water (Biological Industries) and used in in vitro cleavage assay. A 20 μl reaction system comprising RNA substrate (final concentration 500 nM), 2 μl 10× reaction buffer (50 mM Tris-HCl pH 7.4, 100 mM NaCl, 10 mM MgCl2) and 1 μl DNAzyme (10 μM) (as depicted in Table 2, below) was mixed. Reactions were incubated at 37° C. for 60 min. 2×RNA L.D. (Thermo Fisher) was added to each sample. Samples were heated at 70° C. for 30 sec, centrifuged and loaded onto 1.5% agarose TBE gels. Quantification was performed using Image Lab software (Bio Rad).
As for “DNAzyme 1684: SEQ ID NO: 56: GAGAGGGTAggctagctacaacgaTGAAGGGAA (DNA GAGAGGGTAGGCTAGCTACAACGATGAAGGGAA; DNA, backbone and methylation of C not given here)”, the Validated cleavage result was “validated for mediating cleavage of p21 mRNA”.

“DNAzyme 1742: SEQ ID NO: 59: TCCAGTCCAggctagctacaacgaTGAGCTGGG (DNA TCCAGTCCAGGCTAGCTACAACGATGAGCTGGG; DNA, backbone and methylation of C not given here)”: the Validated cleavage result is reported as “validated for mediating cleavage of p21 mRNA”.

Turning to “DNAzyme 1116: SEQ ID NO: 41: AAAGGAGAAggctagctacaacgaACGGGAUGA (DNA AAAGGAGAAGGCTAGCTACAACGAACGGGAUGA; DNA, backbone, methylation of C and T or U not given here)”, the Validated cleavage entry was “validated for mediating cleavage of p21 mRNA”.

Take “DNAzyme 1683: SEQ ID NO: 55: AGAGGGTAtccgagccggacgaGAAGGGAAA (DNA AGAGGGTATCCGAGCCGGACGAGAAGGGAAA; DNA, backbone and methylation of C not given here)”: the Validated cleavage entry is reported as “validated for mediating cleavage of p21 mRNA”.

With “DNAzyme 1986: SEQ ID NO: 72: GCAATGAAtccgagccggacgaGGGGAGGGA (DNA GCAATGAATCCGAGCCGGACGAGGGGAGGGA; DNA, backbone and methylation of C not given here)”, the Validated cleavage result is “validated for mediating cleavage of p21 mRNA”.

“DNAzyme 1947: SEQ ID NO: 69: GCTGGACGAggctagctacaacgaTTGAGGGGC (DNA GCTGGACGAGGCTAGCTACAACGATTGAGGGGC; DNA, backbone and methylation of C not given here)”: the Validated cleavage result is on record as “validated for mediating cleavage of p21 mRNA”.

On to “DNAzyme 1003: SEQ ID NO: 37: GCCAGAGGtccgagccggacgaGGGGGGCAG (DNA GCCAGAGGTCCGAGCCGGACGAGGGGGGCAG; DNA, backbone and methylation of C not given here)”, for which the Validated cleavage entry is “validated for mediating cleavage of p21 mRNA”.

Take “DNAzyme 1991: SEQ ID NO: 74: AAAGTGCAAggctagctacaacgaGAACTGGGG (DNA AAAGTGCAAGGCTAGCTACAACGAGAACTGGGG; DNA, backbone and methylation of C not given here)”: the Validated cleavage result is listed as “validated for mediating cleavage of p21 mRNA”.

Consider “DNAzyme 857: SEQ ID NO: 34: GCAGGCTTtccgagccggacgaTGTGGGCGG (GCAGGCTTTCCGAGCCGGACGATGTGGGCGG; DNA, backbone and methylation of C not given here)”, for which the Validated cleavage entry is “validated for mediating cleavage of p21 mRNA”.

“DNAzyme 2266: SEQ ID NO: 78: AGAGGTTTAggctagctacaacgaAGTCTAGGT (DNA AGAGGTTTAGGCTAGCTACAACGAAGTCTAGGT; DNA, backbone and methylation of C not given here)”: the Validated cleavage entry is on record as “validated for mediating cleavage of p21 mRNA”.

For “DNAzyme 1467: SEQ ID NO: 46: TTCACAAGAggctagctacaacgaAGAGGGGGG (DNA TTCACAAGAGGCTAGCTACAACGAAGAGGGGGG; DNA, backbone and methylation of C not given here)”, the Validated cleavage entry was “validated for mediating cleavage of p21 mRNA”.

For the substance “DNAzyme 1987: SEQ ID NO: 73: TGCAATGAAggctagctacaacgaTGGGGAGGG (DNA TGCAATGAAGGCTAGCTACAACGATGGGGAGGG; DNA, backbone and methylation of C not given here)”, the Validated cleavage entry is reported as “validated for mediating cleavage of p21 mRNA”.

Take “DNAzyme 1838: SEQ ID NO: 63: GGACCCTCAggctagctacaacgaCCCCACAGC (DNA GGACCCTCAGGCTAGCTACAACGACCCCACAGC; DNA, backbone and methylation of C not given here)”: the Validated cleavage result is “validated for mediating cleavage of p21 mRNA”.

Regarding “DNAzyme 1976: SEQ ID NO: 71: GGGGAGGGAggctagctacaacgaGGGGTGGAT (DNA GGGGAGGGAGGCTAGCTACAACGAGGGGTGGAT; DNA, backbone and methylation of C not given here)”, the Validated cleavage result is “validated for mediating cleavage of p21 mRNA”.

A further data set has as its system senescent human IMR-90 fibroblast cells.
Test: not given
The data set is classed as cell-based.
Settings: not given
How it is done:
Human IMR-90, BJ, WI-38 fibroblasts and REC epithelial cells were obtained from ATCC and grown at 5% oxygen. IMR-90 and REC cells were maintained in DMEM medium comprising 100 units per ml of penicillin, […] of streptomycin and 10% fetal bovine serum. BJ and WI-38 cells were maintained in EMEM medium comprising 100 units per ml of penicillin, […] of streptomycin, 10% fetal bovine serum, 1% Pyruvate, 1% L-Glutamine, mLFs were isolated according to standard procedures [Seluanov, A., et al. J Vis Exp (2010) (44):2033] and grown at 5% oxygen. Cells were maintained in EMEM medium comprising 100 units per ml of penicillin, […] of streptomycin and 15% fetal bovine serum.
DNA damage induced senescence (DIS) was induced by etoposide treatment (E1383, Sigma) at a concentration of […] for IMR-90, BJ, and WI-38, 16 μM for mLF and 12.5 μM for REC for a duration of 48 hours. Cells acquired the senescence phenotype 7 days post treatment (determined by SA-beta-gal staining).
Oncogene Induced Senescence (OIS) was induced by means of retroviral infection with H-RasG12 (pLNCX2) at 5% oxygen. Retroviruses were packaged, and infections were performed as described below.
Replicative Induced Senescence (RIS) was induced by long-term passaging of the cells in tissue culture. Cells acquired the senescence phenotype after 40 population doublings.
Primary target cells (IMR-90, BJ, […]) were plated in 24-well plates at 100,000 cells per well. Cells were transfected with different concentrations of DNAzymes (as depicted in Table 2, below) using Lipofectamine™ 2000 (Invitrogen) according to manufacturer instructions. The percentage of survival was determined based on quantification of remaining adherent cells using PrestoBlue® reagent (A13262, Life Technologies Ltd.) relative to Lipofectamine™ only control and compared to Scramble DNAzyme (Dz_Scramble) [Scramble Arm (Scr A) sequence: ATCTTCCTFggctagctacaacgaCGCCTCTCC, SEQ ID NO: 5, or Scramble catalytic core (Scr B) sequence: AGGAGAACAacagtaactggcgacGGGATGAGG, SEQ ID NO: 86] treated cells, 3-6 days following transfection.
For the substance “290 (DNA AGGGGAGGAGGCTAGCTACAACGATTGACGAGT; chemistry not given here) [compound 290]”, the Validated cytotoxicity entry was “+”.

With “1003 (DNA GCCAGAGGTCCGAGCCGGACGAGGGGGGCAG; chemistry not given here) [compound 1003]”, the Validated cytotoxicity result is “+”.

Regarding “236 (DNA CGTATACATCCGAGCCGGACGAGCTGGGGAA; chemistry not given here) [compound 236]”, the Validated cytotoxicity entry was “+”.

In the case of “1947 (DNA GCTGGACGAGGCTAGCTACAACGATTGAGGGGC; chemistry not given here) [compound 1947]”, the Validated cytotoxicity result is recorded as “+”.

For “252 (DNA TACTCCCCAGGCTAGCTACAACGAATAGCCCGT; chemistry not given here) [compound 252]”, the Validated cytotoxicity result is given as “+”.

With “225 (DNA CTGGGGAAAGGCTAGCTACAACGATGGGGCTCA; chemistry not given here) [compound 225]”, the Validated cytotoxicity entry is given as “+”.

With “1524 (DNA GAGGGGCCAGGCTAGCTACAACGAGAGGGCAGG; chemistry not given here) [compound 1524]”, the Validated cytotoxicity result was “+”.

For the substance “387 (DNA GCTGCCGCAGGCTAGCTACAACGAGGGTTCTGA; chemistry not given here) [compound 387]”, the Validated cytotoxicity result was “+”.

Take “394 (DNA AGGCCTTGTCCGAGCCGGACGAGCCGCATGG; chemistry not given here) [compound 394]”: the Validated cytotoxicity result is “+”.

Take “1851 (DNA GTGCCACCAGGCTAGCTACAACGAATGGGACCC; chemistry not given here) [compound 1851]”: the Validated cytotoxicity result is listed as “+”.

As for “185 (DNA CAGATCATGGGCTAGCTACAACGAAGCAAAGAA; chemistry not given here) [compound 185]”, the Validated cytotoxicity result is “+”.

Turning to “317 (DNA TGGTTGCAGGGCTAGCTACAACGAAGCTTTGTT; chemistry not given here) [compound 317]”, the Validated cytotoxicity result is “+”.

In the case of “2235 (DNA ACCAGGACAGGCTAGCTACAACGAATGGGGAGC; chemistry not given here) [compound 2235]”, the Validated cytotoxicity entry is reported as “+”.

Turning to “78 (DNA TGTCTCCTAGGCTAGCTACAACGACATCCCCTT; chemistry not given here) [compound 78]”, the Validated cytotoxicity result is “+”.

“1418 (DNA AGCTCAGCTCCGAGCCGGACGATAGGCTGTG; chemistry not given here) [compound 1418]”: the Validated cytotoxicity result is on record as “+”.

Turning to “1467 (DNA TTCACAAGAGGCTAGCTACAACGAAGAGGGGGG; chemistry not given here) [compound 1467]”, the Validated cytotoxicity result is listed as “+”.

In the case of “377 (DNA GGGTTCTGAGGCTAGCTACAACGAGGACATCCC; chemistry not given here) [compound 377]”, the Validated cytotoxicity entry is on record as “+”.
